Values of other authors as cited in PMC9972852, “Multivalent effect of peptide functionalized polymeric nanoparticles towards selective prostate cancer targeting” (Nanoscale Advances, 2023).

Tested on: extracellular domain of PSMA
Settings: monomeric peptide WQPDTAHHWATL
Text: Prostate specific membrane antigen (PSMA) is a 100 kDa type II transmembrane glycosylated protein with folate hydrolase activity and is overexpressed not only in nearly all prostate cancer cells,[6] but also in tumor neovasculature in a variety of cancers.[6–8] In contrast, it has minimal expression (100–1000 times lower) in normal prostate epithelium tissues and other normal tissues,[7,9] making it an ideal biomarker for the design of various targeted therapies. Several different kinds of targeting ligands against PSMA have been discovered over the years;[10–12] however, they have not yet had ...

Sequence: WQPDTAHHWATLC [WQP peptide, PSMA-targeting cell targeting peptide …, synthesized with an added C-terminal cysteine]
- Binding affinity to the extracellular domain of PSMA: moderate/low
